Reference: patent US10941114B2, “Small molecule lipid II inhibitors” (University Of Maryland, Baltimore, priority 2015, dated 2021)
In brackets after ≈: the same amount, converted by molar mass. Where a name gives a salt, the structure may show the parent alone. Read-outs that look alike come from different tables or passages of the source.

Experiments:
Staphylococcus aureus = test: Antibacterial activity assay (MIC, broth dilution); assay type: cell-based; design: S. aureus Killing / Bacterial Killing S. aureus: unit not given here; conditions: for MIC Staphylococcus aureus: MMX#-ATCC# 100-29213; for Bacterial Killing S. aureus: determined as in Example 1E (MIC)
Enterococcus faecalis = test: Antibacterial activity assay (MIC, broth dilution); assay type: cell-based; conditions: for MIC: Enterococcus faecalis; for MIC Enterococcus faecalis: MMX#-ATCC# 101-29212; for MIC Enterococcus faecalis (VRE): MMX#-ATCC# 848-NA, vancomycin-resistant
Enterococcus faecium = test: Antibacterial activity assay (MIC, broth dilution); assay type: cell-based; design: Bacterial Killing E. faecium: unit: ug/mL; conditions: for MIC: Enterococcus faecium; for Bacterial Killing E. faecium: determined as in Example 1E (MIC)
In short: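 Broth dilution MIC per CLSI (M07-A10) in cation-adjusted Mueller Hinton broth with 10% brain-heart infusion; MIC is the lowest concentration preventing visible growth, in μg/mL. Some compounds were run by broth microdilution.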

Escherichia coli = test: Antibacterial activity assay (MIC, broth dilution); assay type: cell-based; conditions: for MIC Escherichia coli: MMX#-ATCC# 102.25922; for Bacterial Killing E. coli: determined as in Example 1E (MIC)
Streptococcus pneumoniae = test: Antibacterial activity assay (MIC, broth dilution); assay type: cell-based; conditions: for MIC Streptococcus pneumoniae (PRSP): MMX#-ATCC# 884-NA, penicillin-resistant; for MIC Streptococcus pneumoniae: MMX#-ATCC# 1195-49619
Pseudomonas aeruginosa = test: Antibacterial activity assay (MIC, broth dilution); assay type: cell-based; conditions: MMX#-ATCC# 103-27853
Bacillus anthracis = assay type: cell-based
Yersinia pestis = assay type: cell-based; conditions: CO92; according to DOD guidelines
Burkholderia mallei = assay type: cell-based; conditions: 23344; according to DOD guidelines
[1] = tested on: Burkholderia pseudomallei; assay type: cell-based; conditions: K96243; according to DOD guidelines
[2] = In vivo efficacy of BAS00127538 (bacteria in spleen and blood); conditions: samples collected at 50 hours post-infection from treated animals
Protocol: To determine the efficacy of […] in vivo, samples were collected from vehicle-treated animals at 20 hours or at 50 hours post-infection from vancomycin- and BAS-treated animals.

[3] = in vivo
in vivo [4] = conditions: iv
[5] = Pharmacokinetic study in mice (plasma concentration by LC/MS/MS)
[6] = Plasma / serum stability (LC/MS/MS); assay type: in vitro ADME; conditions: 10 μg/mL, 50% serum
CYP3A4 = CYP3A4 (Homo sapiens, UniProt P08684); test: P450 enzyme inhibition (IC50 fluorescence); assay type: in vitro ADME
Chain of CYP3A4 (P08684 whole entry): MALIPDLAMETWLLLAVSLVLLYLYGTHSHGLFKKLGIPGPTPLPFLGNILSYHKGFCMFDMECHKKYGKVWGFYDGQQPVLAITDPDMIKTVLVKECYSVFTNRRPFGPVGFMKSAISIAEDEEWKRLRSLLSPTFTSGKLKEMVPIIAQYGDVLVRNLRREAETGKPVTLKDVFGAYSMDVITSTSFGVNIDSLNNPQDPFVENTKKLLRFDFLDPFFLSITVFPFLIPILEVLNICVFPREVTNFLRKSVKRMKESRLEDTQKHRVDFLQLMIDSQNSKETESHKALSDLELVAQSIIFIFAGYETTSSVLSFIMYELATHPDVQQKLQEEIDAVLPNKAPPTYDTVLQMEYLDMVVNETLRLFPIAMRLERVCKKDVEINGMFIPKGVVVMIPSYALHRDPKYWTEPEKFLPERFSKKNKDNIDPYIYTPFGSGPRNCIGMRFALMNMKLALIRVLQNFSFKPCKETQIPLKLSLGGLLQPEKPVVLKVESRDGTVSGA

CYP2D6 = CYP2D6 (Homo sapiens, UniProt P10635); test: P450 enzyme inhibition (IC50 fluorescence); assay type: in vitro ADME; conditions: substrate AMMC
Chain of CYP2D6 (P10635 whole entry): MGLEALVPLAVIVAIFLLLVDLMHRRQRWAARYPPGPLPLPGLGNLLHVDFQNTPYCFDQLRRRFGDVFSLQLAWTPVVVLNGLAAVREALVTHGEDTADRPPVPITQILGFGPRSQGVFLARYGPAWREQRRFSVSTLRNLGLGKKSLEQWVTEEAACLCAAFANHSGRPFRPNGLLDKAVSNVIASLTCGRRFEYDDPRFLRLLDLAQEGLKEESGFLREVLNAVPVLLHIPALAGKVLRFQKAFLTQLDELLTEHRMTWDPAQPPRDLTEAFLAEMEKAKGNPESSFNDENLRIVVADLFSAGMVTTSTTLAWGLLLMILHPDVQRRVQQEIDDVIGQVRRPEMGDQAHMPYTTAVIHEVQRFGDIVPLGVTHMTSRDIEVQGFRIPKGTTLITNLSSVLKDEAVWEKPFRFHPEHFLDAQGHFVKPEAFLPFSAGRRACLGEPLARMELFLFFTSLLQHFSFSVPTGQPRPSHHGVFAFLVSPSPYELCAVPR

CYP2C19 = CYP2C19 (Homo sapiens, UniProt P33261); test: P450 enzyme inhibition (IC50 fluorescence); assay type: in vitro ADME; conditions: substrate CEC: 3-cyano-7-ethoxycoumarin
Chain of CYP2C19 (P33261 whole entry): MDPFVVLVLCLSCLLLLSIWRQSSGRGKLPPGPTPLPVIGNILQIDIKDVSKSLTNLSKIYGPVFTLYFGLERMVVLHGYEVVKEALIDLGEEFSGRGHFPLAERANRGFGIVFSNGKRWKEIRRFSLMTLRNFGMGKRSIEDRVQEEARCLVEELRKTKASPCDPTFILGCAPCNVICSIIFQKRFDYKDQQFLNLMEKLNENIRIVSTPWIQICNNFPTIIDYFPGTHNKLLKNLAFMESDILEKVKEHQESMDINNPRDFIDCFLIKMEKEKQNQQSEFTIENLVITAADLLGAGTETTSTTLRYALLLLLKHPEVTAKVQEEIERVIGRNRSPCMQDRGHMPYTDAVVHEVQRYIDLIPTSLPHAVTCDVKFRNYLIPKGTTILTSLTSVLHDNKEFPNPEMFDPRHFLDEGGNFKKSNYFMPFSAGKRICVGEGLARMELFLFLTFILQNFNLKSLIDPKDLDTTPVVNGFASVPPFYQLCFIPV

HeLa cells = test: Cytotoxicity testing (CC50, MTS assay)
[7] = Maximum Tolerated Dose (MTD) and in vivo toxicity at the MTD; conditions: mouse, in vivo, ip
in vivo [8] = conditions: both, ICR, mouse
[9] = Liver microsome stability testing; assay type: in vitro ADME; conditions: positive control; human liver microsomes
Protocol: The in vitro microsome stability assay was performed using human liver microsomes and a Biomek FXP™ liquid handling workstation to deliver reagents to a deep 96-well plate on a shaking peltier with temperature controls. Human liver microsomes were purchased from Corning™. The test compound was incubated in an aqueous reaction mixture (200 μL total volume) consisting of human liver microsomes (150 mixed donor pool) and NADPH Regenerating System Solutions A and B (Corning™) in the presence of 100 mM potassium phosphate buffer (pH 7.4). NADPH Regenerating System Solution A comprises nicotinamide adenine dinucleotide phosphate (NADP+) and glucose 6-phosphate; NADPH Regenerating System Solution B contains glucose-6-phosphate dehydrogenase. Solutions A and B were combined prior to adding to the reaction plate to generate a supply of NADPH. The NADPH was added last to initiate the reactions simultaneously. The final concentration of the test compound was 10 μM and the microsomal protein concentration was 0.5 mg/mL. […]
The half-life (t½) was calculated using the following equation:
[formula] where “slope” is the slope of the line formed by ln(% remaining test compound) vs. time. The in vitro intrinsic clearance (CLint) was calculated using equation: […]

[10] = cation-adjusted Mueller Hinton broth, 10% BHI, read-out: MIC E. faecalis 51299
[11] = cation-adjusted Mueller Hinton broth, 10% BHI, read-out: MIC E. faecalis 51575
[12] = cation-adjusted Mueller Hinton broth, 10% BHI, read-out: MIC E. faecalis C99707
[13] = cation-adjusted Mueller Hinton broth, 10% BHI, read-out: MIC E. faecium C110914
[14] = cation-adjusted Mueller Hinton broth, 10% BHI, read-out: MIC E. faecium IH79985
[15] = cation-adjusted Mueller Hinton broth, 10% BHI, read-out: MIC E. faecium S1559
[16] = IV administration, single dose […], mice (n=3)
[17] = comparator values repeated from Table 4 (IV, […])
[18] = PO administration, single oral dose 5 mg/kg, mice (n=3)

CN1/C(=C/C=C/c2cc(-c3ccccc3)cc(-c3ccccc3)[o+]2)C(C)(C)c2ccccc21 [BAS00127538, 1-methyl-2,4-diphenyl-6-((1E,3E)-3-(1,3,3-trimethylindolin-2-ylidene)pro-p-1-en-1yl)pyryl-1-ium) tetrafluoroborate]
MIC Staphylococcus aureus (Staphylococcus aureus): 0.5 µg/mL | MIC (Enterococcus faecalis; [10]): 2 µg/mL | MIC (Enterococcus faecalis; [11]): 2 µg/mL | MIC (Enterococcus faecalis; [12]): 2 µg/mL | MIC Enterococcus faecalis (Enterococcus faecalis): 1 µg/mL | MIC Enterococcus faecalis (VRE) (Enterococcus faecalis): 1 µg/mL | MIC (Enterococcus faecium; [13]): 2 µg/mL | MIC (Enterococcus faecium; [14]): 2 µg/mL | MIC (Enterococcus faecium; [15]): 2 µg/mL | MIC Escherichia coli (Escherichia coli): 4 µg/mL | MIC Streptococcus pneumoniae (PRSP) (Streptococcus pneumoniae): 8 µg/mL | MIC Streptococcus pneumoniae (Streptococcus pneumoniae): 8 µg/mL | MIC Pseudomonas aeruginosa (Pseudomonas aeruginosa): > 8 µg/mL | MIC Bacillus anthracis (spores)* (Bacillus anthracis; Ames, spores, according to DOD guidelines): 0.5 µg/mL | MIC Bacillus anthracis* (Bacillus anthracis; Ames, according to DOD guidelines): 0.5 µg/mL | MIC Bacillus anthracis Sterne (Bacillus anthracis; MMX#-ATCC# 109-NA): 0.5 µg/mL | MIC Yersinia pestis* (Yersinia pestis): 8 µg/mL | MIC Burkholderia mallei* (Burkholderia mallei): > 64 µg/mL | MIC Burkholderia pseudomallei* [1]: 64 µg/mL | survival of treated animals [2]: One animal treated with BAS did not survive beyond 28 hours | detection in plasma ([3]; mouse, po, 5 mg/kg): could not be detected | half-life (in vivo [4]; male, CD1, mouse, plasma, […]): 0.22 h | Cl_obs [5, 16]: 711 mL/min/kg | T1/2 [5, 16]: 0.227 h | Vss_obs [5, 16]: 12.2 L/kg | T1/2 [5, 17]: 0.227 h | AUClast/D ([5]; comparator values repeated from Table 4 (IV, […]), AUClast/D): 26.9 ng·h/mL | volume of distribution ([5]; intravenous administration, single dose […], mice): 12.2 L/kg

CN(C)c1ccc(/C=C/c2cc(-c3ccc(Br)cc3)cc(-c3ccc(Br)cc3)[o+]2)cc1 [Compound 6jc48-1, (E)-2,4-bis(4-bromophenyl)-6-(4-(dimethylamino)styryl)pyrylium boron tetrafluoride salt]
Bacterial Killing S. aureus (Staphylococcus aureus): 16 | MIC (Enterococcus faecalis; MIC quoted with the macromolecular synthesis data (FIG. 11), strain not given, MMS run on E. faecalis EF1509, read-out: MIC): 4 µg/mL | MIC (Enterococcus faecalis; [10]): 4 µg/mL | MIC (Enterococcus faecalis; [11]): 2 µg/mL | MIC (Enterococcus faecalis; [12]): 2 µg/mL | MIC (Enterococcus faecalis; clinical isolates sensitive to linezolid and daptomycin, n = 5, read-out: MIC E. faecalis* clinical isolates): 4 to 16 µg/mL | MIC (Enterococcus faecium; [13]): 4 µg/mL | MIC (Enterococcus faecium; [14]): 8 µg/mL | MIC (Enterococcus faecium; [15]): 2 µg/mL | MIC (Enterococcus faecium; clinical isolates sensitive to linezolid and daptomycin, n = 5, read-out: MIC E. faecium* clinical isolates): 4 to 16 µg/mL | Bacterial Killing E. faecium (Enterococcus faecium): 4 | Bacterial Killing E. coli (Escherichia coli): >64 | stability in serum ([6]; after 2 hours): stable after 2 hours in serum | compound remaining ([6]; after 19 hours): 46% | IC50 (CYP3A4; substrate BFC: 7-benzoyloxy-4-triflluoromethyl coumarin, read-out: P450 enzyme inhibition (IC50 fluorescence) CYP3A4/BFC): 1.3 µM | IC50 (CYP3A4; substrate DBF: dibenzylfluorescein, read-out: P450 enzyme inhibition (IC50 fluorescence) CYP3A4/DBF): > 10 µM | IC50 (CYP2D6): > 10 µM | IC50 (CYP2C19): > 10 µM | AUCextrap ([3]; CD1, mouse, po, 5 mg/kg): 48.6% | Vss_obs ([3]; CD1, mouse, po, 5 mg/kg): 1.75 L/kg | Volume of distribution at equilibrium (Vs) ([3]; male, CD1, mouse, iv, […]): 22.8 | Vss_obs ([3]; male, CD1, mouse, iv, […]): 22.8 ± 2.9 L/kg | Vd (in vivo [4]; male, CD1, mouse, plasma, […]): ~23 L/kg | Vd (in vivo [4]; male, mouse, in vivo, […]): 22.8 ± 2.9 L/kg | reduction in cytotoxicity compared to the parent BAS00127538 (HeLa cells): 50 fold | MTD [7]: ≤ 100 mg/kg | AUClast/D [5, 16]: 5.36e+08 ± 4.7e+07 ng·h/mL | Cl_obs [5, 16]: 23.6 ± 1.7 mL/min/kg | T1/2 [5, 16]: 13.3 ± 1.8 h | AUCInf [5, 18]: 90 ng·h/mL | AUClast [5, 18]: 46.9 ng·h/mL | Cmax [5, 18]: 19.1 ng/mL | Finf (inferred bioavailability) [5, 18]: 2.54% | Flast (bioavailability at last time point) [5, 18]: 1.9% | T1/2 [5, 18]: 2.78 h | Cl—obs [5, 17]: 23.6 ± 1.7 mL/min/kg | T1/2 [5, 17]: 13.3 ± 1.8 h

CN(C)c1ccc(/C=C/c2cc(-c3ccc(F)cc3)cc(-c3ccc(F)cc3)[o+]2)cc1 [Compound 7jc47-1, (E)-2-(4-(dimethylamino)styryl)-4,6-bis(4-fluorophenyl) pyrylium boron tetrafluoride salt]
Bacterial Killing S. aureus (Staphylococcus aureus): 1 | Bacterial Killing E. faecium (Enterococcus faecium): 1 | Bacterial Killing E. coli (Escherichia coli): >64 | AUCextrap ([3]; CD1, mouse, iv, 10 mg/kg): 2.25 ± 1.13% | Cl3 ([3]; CD1, mouse, iv, 10 mg/kg): 23.6 ± 1.7 mL/min/kg | AUC(0-inf) (in vivo [4]; CD1, mouse, plasma, 10 mg/kg): 578 ± 175 ng·h/mL | Cmax (in vivo [4]; CD1, mouse, plasma, 10 mg/kg): 3220 ± 1500 ng/mL | MRT (in vivo [4]; CD1, mouse, plasma, 10 mg/kg): 1.74 ± 0.49 h | Vd (in vivo [4]; CD1, mouse, plasma, 10 mg/kg): 46.3 ± 12.9 L/kg | half-life (in vivo [4]; CD1, mouse, plasma, 10 mg/kg): ~7 h | MTD at 72 h (in vivo [8]): 60 mg/kg | cytotoxicity in vitro (HeLa cells): no observable cytotoxicity in vitro | T1/2 ([5]; mouse, in vivo, iv, 10 mg/kg): 6.81 ± 1.33 h

CC(=O)NC[C@H]1CN(c2ccc(N3CCOCC3)c(F)c2)C(=O)O1 [Linezolid, linezolid, reference compound]
MIC Staphylococcus aureus (Staphylococcus aureus): 4 µg/mL (≈ 11.9 µM) | MIC Staphylococcus aureus (MRSA) (Staphylococcus aureus; MMX#-ATCC# 757-NA, methicillin-resistant): 4 µg/mL (≈ 11.9 µM) | MIC Enterococcus faecalis (Enterococcus faecalis): 2 µg/mL (≈ 5.93 µM) | MIC Enterococcus faecalis (VRE) (Enterococcus faecalis): 2 µg/mL (≈ 5.93 µM) | MIC Escherichia coli (Escherichia coli): > 64 µg/mL | MIC Streptococcus pneumoniae (PRSP) (Streptococcus pneumoniae): 2 µg/mL (≈ 5.93 µM) | MIC Streptococcus pneumoniae (Streptococcus pneumoniae): 2 µg/mL (≈ 5.93 µM) | MIC Pseudomonas aeruginosa (Pseudomonas aeruginosa): > 64 µg/mL

COc1ccc2c(c1)[C@]13CCCC[C@@H]1[C@H](C2)N(C)CC3 [dextromethorphan]
intrinsic clearance [9]: 31 µL/min/mg
